Laboratory results published in US11236086B2, “Substituted pyrrolopyridines as inhibitors of activin receptor-like kinase” (BLUEPRINT MEDICINES CORPORATION, priority 2017, dated 2022).

Key:
[1] = biological target: T1, ALK2R206H (mutant ALK2, N-terminally tagged with GST) (Homo sapiens, UniProt Q04771, R206H); experiment: ALK binding assay (LANTHASCREEN TR-FRET competitive binding, displacement of Kinase Tracer 178); details: read-out: Binding Assay (IC50 class)
T1 construct: purchased Carna Bioscience or ThermoFisher 09-148 or PV6232
T1 sequence (Q04771 21-509 R206H): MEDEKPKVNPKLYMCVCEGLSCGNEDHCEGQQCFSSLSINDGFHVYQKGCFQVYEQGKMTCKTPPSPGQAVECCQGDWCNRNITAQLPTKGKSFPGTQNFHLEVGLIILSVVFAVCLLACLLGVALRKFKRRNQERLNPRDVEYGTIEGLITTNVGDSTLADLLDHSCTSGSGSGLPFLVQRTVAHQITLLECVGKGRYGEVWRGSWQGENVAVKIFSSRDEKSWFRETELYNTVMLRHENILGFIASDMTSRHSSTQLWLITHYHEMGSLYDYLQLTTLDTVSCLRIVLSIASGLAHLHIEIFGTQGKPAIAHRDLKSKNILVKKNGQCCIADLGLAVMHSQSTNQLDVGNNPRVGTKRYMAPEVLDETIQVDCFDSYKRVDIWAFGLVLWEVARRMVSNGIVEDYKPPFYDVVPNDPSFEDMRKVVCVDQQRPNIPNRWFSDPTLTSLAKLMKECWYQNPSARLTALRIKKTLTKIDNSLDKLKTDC
In short: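 Competitive displacement of Kinase Tracer 178 (50 nM) from N-terminally GST-tagged mutant ALK2 R206H (2-5 nM) by compound, detected by TR-FRET with Eu-anti-GST antibody (4-10 nM). 30 min room temperature incubation, 1% DMSO final; normalized signal fitted to 4-parameter log dose response for IC50.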

human ALK2 R206H = biological target: T2, human ALK2 R206H (Homo sapiens, UniProt Q04771, R206H); experiment: Cell-based ALK2-R206H cell activity assay (Smad1-Ser463/Ser465 phosphorylation by AlphaLISA in HEK293-ALK2-R206H cells); details: phospho-Smad1 AlphaLISA, read-out: Cell Line (Cell Assay, IC50 class)
T2 construct: expressed in transfected cells; host or cells: HEK293 (ATCC CRL1573), lentivirus transduction, blasticidin selection
T2 sequence (Q04771 21-509 R206H): T1 sequence (Q04771 21-509 R206H)
In short: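 IC50 comes from a 10-point curve, scaled between DMSO and 1 μM LDN193189 controls, of lysate phospho-Smad1 (Ser463/465) measured by AlphaLISA. Compounds (top 10 μM or 1 μM, 3-fold steps, duplicates) were given 2-3 h to serum-starved HEK293 cells that stably express FLAG-tagged human ALK2 R206H.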

Row | IC50 [1] | IC50 (human ALK2 R206H) | SMILES
1 | ≤ 10 nM | ≤ 100 nM | CCN1CCC(c2ccc(-c3cc4c(N5CCN(C(=O)C6CC6)CC5)ccnc4[nH]3)cc2)C(F)C1 (centres unmarked) [Compound 442]
2 | ≤ 10 nM | ≤ 100 nM | CCCOC(=O)N1CCN(c2ccnc3[nH]c(-c4cnn(C)c4)c(C#N)c23)CC1 [Compound 136]
3 | ≤ 10 nM | 100 to 500 nM | Cc1cc(-c2cc3c(N4CCN(C(=O)OC5COC5)CC4)ccnc3[nH]2)on1 [Compound 104]
4 | ≤ 10 nM | ≤ 100 nM | CCOC(=O)N1CCN(c2ccnc3[nH]c(-c4cnn(C(F)F)c4)c(C#N)c23)CC1 [Compound 258]
5 | ≤ 10 nM | 100 to 500 nM | CCOC(=O)N1CCN(c2ccnc3[nH]c(-c4ccc(C#N)cn4)cc23)CC1 [Compound 56]
6 | ≤ 10 nM | ≤ 100 nM | Cn1cc(-c2[nH]c3nccc(N4CCN(C(=O)[C@H]5C[C@H](C#N)C5)CC4)c3c2Cl)cn1 [Compound 299]
7 | ≤ 10 nM | ≤ 100 nM | Cc1nc(-c2[nH]c3nccc(N4CCN(C(=O)OC5CCC5)CC4)c3c2C#N)cn1C [Compound 284]
8 | ≤ 10 nM | ≤ 100 nM | Cc1c(-c2cnn(C)c2)[nH]c2nccc(N3CCN(C(=O)O[C@H]4C[C@H](F)C4)CC3)c12 [Compound 245]
9 | ≤ 10 nM | ≤ 100 nM | O=C(OCC(F)F)N1CCN(c2ccnc3[nH]c(-c4nc5c(s4)COCC5)c(Cl)c23)CC1 [Compound 449]
10 | ≤ 10 nM | ≤ 100 nM | O=C(C1CC1)N1CCN(c2ccnc3[nH]c(-c4cnn(C5CCCC5)c4)cc23)CC1 [Compound 197]
11 | ≤ 10 nM | > 500 nM | COC(=O)COc1ccc(-c2cc3c(N4CCN(C(=O)C5CC5)CC4)ccnc3[nH]2)cc1 [Compound 348]
12 | ≤ 10 nM | 100 to 500 nM | CCn1cc(-c2cc3c(N4CCN(C(=O)C5CC5)CC4)ccnc3[nH]2)cn1 [Compound 23]
13 | ≤ 10 nM | ≤ 100 nM | O=C(C1CC1)N1CCN(c2ccnc3[nH]c(-c4ccc(C5CCNCC5(F)F)cc4)cc23)CC1 (centres unmarked) [Compound 431]
14 | ≤ 10 nM | ≤ 100 nM | O=C(C1CC1)N1CCN(c2ccnc3[nH]c(-c4ccc(N5CCN(C6COC6)CC5)cc4)cc23)CC1 [Compound 452]
15 | ≤ 10 nM | ≤ 100 nM | CN1CCN(c2ccc(-c3cc4c(N5CCN(C(=O)C6CC6)CC5)ccnc4[nH]3)cc2)CC1 [Compound 380]
16 | ≤ 10 nM | ≤ 100 nM | Cc1nc(-c2[nH]c3nccc(N4CCN(C(=O)OCC(F)F)CC4)c3c2C#N)cs1 [Compound 337]
17 | ≤ 10 nM | ≤ 100 nM | Cc1nc(-c2cc3c(N4CCN(C(=O)OCC(F)F)CC4)ccnc3[nH]2)cn1C [Compound 190]
18 | ≤ 10 nM | ≤ 100 nM | O=C(C1CC1)N1CCN(c2ccnc3[nH]c(-c4ccc(C5CCOC5)cc4)cc23)CC1 (centres unmarked) [Compound 270]
19 | ≤ 10 nM | 100 to 500 nM | CC(C)COC(=O)N1CCN(c2ccnc3[nH]c(-c4cnn(C)c4)cc23)CC1 [Compound 97]
20 | ≤ 10 nM | ≤ 100 nM | O=C(OC1COC1)N1CCN(c2ccnc3[nH]c(-c4ccc(C5=CCOCC5)cc4)cc23)CC1 [Compound 425]
21 | ≤ 10 nM | ≤ 100 nM | Cn1cnc(-c2cc3c(N4CCN(C(=O)OCC(F)F)CC4)ccnc3[nH]2)c1 [Compound 124]
22 | ≤ 10 nM | ≤ 100 nM | Cn1cc(-c2[nH]c3nccc(N4CCN(C(=O)OCC(F)F)CC4)c3c2Cl)cn1 [Compound 308]
23 | ≤ 10 nM | ≤ 100 nM | Cc1nc(-c2cc3c(N4CCN(C(=O)OC5CC5)CC4)ccnc3[nH]2)cn1C [Compound 75]
24 | ≤ 10 nM | ≤ 100 nM | CCOC(=O)N1CCN(c2ccnc3[nH]c(-c4ccccn4)cc23)CC1 [Compound 7]
25 | ≤ 10 nM | ≤ 100 nM | CO[C@H]1C[C@H](OC(=O)N2CCN(c3ccnc4[nH]c(-c5cnn(C)c5)cc34)CC2)C1 [Compound 232]
26 | ≤ 10 nM | ≤ 100 nM | Cn1cnc(-c2cc3c(N4CCN(C(=O)O[C@H]5C[C@@H](F)C5)CC4)ccnc3[nH]2)c1 [Compound 160]
27 | ≤ 10 nM | ≤ 100 nM | Cn1cc(-c2[nH]c3nccc(N4CCN(C(=O)O[C@H]5CCOC5)CC4)c3c2Cl)cn1 [Compound 330]
28 | ≤ 10 nM | 100 to 500 nM | CC(C#N)Cn1cc(-c2cc3c(N4CCN(C(=O)OC5COC5)CC4)ccnc3[nH]2)cn1 (centres unmarked) [Compound 352]

Row | IC50 [1] | IC50 (human ALK2 R206H) | SMILES
29 | ≤ 10 nM | ≤ 100 nM | Cc1nc(-c2[nH]c3nccc(N4CCN(C(=O)OCC(F)F)CC4)c3c2C#N)cn1C [Compound 321]
30 | ≤ 10 nM | ≤ 100 nM | Cc1nn(C(C)C)cc1-c1cc2c(N3CCN(C(=O)[C@H]4CC[C@H](C#N)CC4)CC3)ccnc2[nH]1 [Compound 422]
31 | ≤ 10 nM | ≤ 100 nM | CC(C)N1CCN(c2ccc(-c3cc4c(N5CCN(C(=O)C6CC6)CC5)ccnc4[nH]3)cc2)CC1 [Compound 438]
32 | ≤ 10 nM | 100 to 500 nM | O=C(OC1COC1)N1CCN(c2ccnc3[nH]c(-c4cccnc4)cc23)CC1 [Compound 67]
33 | ≤ 10 nM | 100 to 500 nM | Cn1cc(-c2cc3c(N4CCN(C(=O)OCC5COC5)CC4)ccnc3[nH]2)cn1 [Compound 153]
34 | ≤ 10 nM | ≤ 100 nM | CCOC(=O)N1CCN(c2ccnc3[nH]c(-c4nc(C)c(C)s4)cc23)CC1 [Compound 114]
35 | ≤ 10 nM | ≤ 100 nM | O=C(OC1COC1)N1CCN(c2ccnc3[nH]c(-c4nc5c(s4)CSCC5)cc23)CC1 [Compound 417]
36 | ≤ 10 nM | ≤ 100 nM | CCOC(=O)N1CCN(c2ccnc3[nH]c(-c4cn(C)nc4C#N)cc23)CC1 [Compound 69]
37 | ≤ 10 nM | ≤ 100 nM | CCN1CCN(c2ccc(-c3cc4c(N5CCN(C(=O)C6CC6)CC5)ccnc4[nH]3)cc2)CC1 [Compound 418]
38 | ≤ 10 nM | ≤ 100 nM | CCn1cnc(-c2cc3c(N4CCN(C(=O)OC5COC5)CC4)ccnc3[nH]2)c1 [Compound 146]
39 | ≤ 10 nM | 100 to 500 nM | CCOC(=O)N1CCN(c2ccnc3[nH]c(-c4ccc(C)cn4)cc23)CC1 [Compound 24]
40 | ≤ 10 nM | ≤ 100 nM | N#Cc1c(-c2cnn(C(F)F)c2)[nH]c2nccc(N3CCN(C(=O)OC4COC4)CC3)c12 [Compound 376]
41 | ≤ 10 nM | ≤ 100 nM | O=C(O[C@H]1C[C@H](F)C1)N1CCN(c2ccnc3[nH]c(-c4cn(C(F)F)cn4)cc23)CC1 [Compound 345]
42 | ≤ 10 nM | ≤ 100 nM | O=C(C1CC1)N1CCN(c2ccnc3[nH]c(-c4ccc(C5(O)CCC5)cc4)cc23)CC1 [Compound 272]
43 | ≤ 10 nM | ≤ 100 nM | Cn1cc(-c2cc3c(N4CCN(C(=O)O[C@H]5C[C@@H](F)C5)CC4)ccnc3[nH]2)cn1 [Compound 161]
44 | ≤ 10 nM | 100 to 500 nM | Cn1cc(-c2cc3c(N4CCN(C(=O)[C@H]5C[C@H](C#N)C5)CC4)ccnc3[nH]2)cn1 [Compound 123]
45 | ≤ 10 nM | 100 to 500 nM | CCC(C)OC(=O)N1CCN(c2ccnc3[nH]c(-c4cnn(C)c4)cc23)CC1 (centres unmarked) [Compound 98]
46 | ≤ 10 nM | 100 to 500 nM | Cc1c(-c2cnn(C)c2)[nH]c2nccc(N3CCN(C(=O)OC4COC4)CC3)c12 [Compound 148]
47 | ≤ 10 nM | 100 to 500 nM | Cn1cc(-c2cc3c(N4CCN(C(=O)O[C@H]5COC[C@@H]5F)CC4)ccnc3[nH]2)cn1 [Compound 254]
48 | ≤ 10 nM | ≤ 100 nM | O=C(OC1COC1)N1CCN(c2ccnc3[nH]c(-c4ccc(C5(O)CCC5)cc4)cc23)CC1 [Compound 392]
49 | ≤ 10 nM | ≤ 100 nM | N#Cc1c(-c2cn(C(F)F)cn2)[nH]c2nccc(N3CCN(C(=O)OC4COC4)CC3)c12 [Compound 375]
50 | ≤ 10 nM | ≤ 100 nM | CCN1CCN(c2ccc(-c3cc4c(N5CCN(C(=O)C6CC6)CC5)ccnc4[nH]3)nc2)CC1 [Compound 424]
51 | ≤ 10 nM | ≤ 100 nM | Cn1cc(-c2[nH]c3nccc(N4CCN(C(=O)OCC(F)F)CC4)c3c2C#N)cn1 [Compound 256]
52 | ≤ 10 nM | 100 to 500 nM | CN(C)C(=O)COc1ccc(-c2cc3c(N4CCN(C(=O)C5CC5)CC4)ccnc3[nH]2)cc1 [Compound 388]
53 | ≤ 10 nM | ≤ 100 nM | CCOC(=O)N1CCN(c2ccnc3[nH]c(-c4cnn(C5COC5)c4)cc23)CC1 [Compound 145]
54 | ≤ 10 nM | 100 to 500 nM | CC(C)c1csc(-c2cc3c(N4CCN(C(=O)OC5COC5)CC4)ccnc3[nH]2)n1 [Compound 317]
55 | ≤ 10 nM | 100 to 500 nM | COCCOc1ccc(-c2cc3c(N4CCN(C(=O)C5CC5)CC4)ccnc3[nH]2)cc1 [Compound 286]
